Assay results as given in patent US7250413B2, “C-25 carbamate rifamycin derivatives with activity against drug-resistant microbes” (Cumbre Pharmaceuticals Inc., priority 2004, dated 2007).
≈ marks a conversion by molar mass, not a printed value.

How the values were obtained:
Assay in all cases: MIC, microbroth dilution
Type in all cases: cell-based
[1] = tested on: Staphylococcus aureus ATCC29213; conditions: rifS, Cation-Adjusted Mueller-Hinton Broth, 37° C., read-out: MIC
Procedure: (§1) Representative compounds were assayed for antimicrobial activity as follows: Minimum Inhibitory Concentrations (“MICs”) were determined by the microbroth dilution method as per NCCLS guidelines (National Committee for Clinical Laboratory Standards, 2000), except that all growth incubations were conducted at 37° C. Bacterial cultures were tested in the following bacteriological media: S. aureus, S. epidermidis, and E. coli in Cation-Adjusted Mueller-Hinton Broth, S. pneumoniae in THY Broth supplemented with 1 mg/mL catalase under 5% CO2 atmosphere, S. pyogenes in THY Broth, E. faecalis in BHI Broth, H. influenzae in BHI Broth supplemented with 0.75 μL of 1 mg/mL NAD and 150 μL of 1 mg/ml hematin per 5 mL, and M smegmatis in Middlebrook Broth plus ADC Enrichment.

[2] = tested on: Enterococcus faecalis ATCC29212; conditions: rifS, BHI Broth, 37° C., read-out: MIC
Procedure: as §1

[3] = tested on: Mycobacterium smegmatis ATCC700084; conditions: Mycolicibacterium smegmatis, ATCC700084; rifS; Middlebrook Broth plus ADC Enrichment, 37° C.; read-out: MIC
Procedure: as §1

| SMILES | MIC [1] [µg/mL] | MIC [2] [µg/mL] | MIC [3] [µg/mL] |
| --- | --- | --- | --- |
| CO[C@H]1/C=C/O[C@@]2(C)Oc3c(C)c(O)c4c(c3C2=O)C(=O)C(N2CCOCC2)=C(NC(=O)/C(C)=C\C=C\[C@H](C)[C@H](O)[C@@H](C)[C@@H](O)[C@@H](C)[C@H](OC(=O)NCc2cccc(C(F)(F)F)c2)[C@@H]1C)C4=O [Example 13, 25-O-Desacetyl-(carbonyl-1-(3-trifluoromethylbenzylamino)) 3-morpholino rifamycin S] | 0.002 to 1.95 (≈ 0.00213 to 2.07 µM) | 0.25 to 62 (≈ 0.266 to 66 µM) | 0.063 to 31 |
| COc1cncc(NC(=O)c2ccc(N3CCN(C(=O)O[C@H]4[C@H](C)[C@H](O)[C@H](C)[C@@H](O)[C@@H](C)/C=C/C=C(/C)C(=O)NC5=C(N6CCOCC6)C(=O)c6c(c(O)c(C)c7c6C(=O)[C@@](C)(O/C=C/[C@H](OC)[C@H]4C)O7)C5=O)CC3)c(C(F)(F)F)c2)c1 [Example 53, 25-O-Desacetyl-(carbonyl-N-(5-methoxy-pyridin-3-yl)-4-piperazin-1-yl-3-trifluoromethyl-benzamide) 3-morpholino rifamycin S] | 0.002 to 1.95 (≈ 0.00175 to 1.7 µM) | 0.25 to 62 (≈ 0.218 to 54.1 µM) | 0.063 to 31 |
| CO[C@H]1/C=C/O[C@@]2(C)Oc3c(C)c(O)c4c(c3C2=O)C(=O)C(N2CCOCC2)=C(NC(=O)/C(C)=C\C=C\[C@H](C)[C@H](O)[C@@H](C)[C@@H](O)[C@@H](C)[C@H](OC(=O)NCc2cnc3ccccc3c2)[C@@H]1C)C4=O [Example 41, 25-O-Desacetyl-(carbonyl-N-quinolin-3-yl-methylamino) 3-morpholino rifamycin S] | 0.002 to 1.95 (≈ 0.00217 to 2.11 µM) | 0.25 to 62 (≈ 0.271 to 67.2 µM) | 0.063 to 31 |
| CO[C@H]1/C=C/O[C@@]2(C)Oc3c(C)c(O)c4c(c3C2=O)C(=O)C(N2CCOCC2)=C(NC(=O)/C(C)=C\C=C\[C@H](C)[C@H](O)[C@@H](C)[C@@H](O)[C@@H](C)[C@H](OC(=O)NCCN2CCN(C)CC2)[C@@H]1C)C4=O [Example 9, 25-O-Desacetyl-(1-carbonyl-2-(4-methyl-piperazin-1-yl)-ethylamine) 3-morpholino rifamycin S] | 0.002 to 1.95 (≈ 0.0022 to 2.15 µM) | 0.25 to 62 (≈ 0.275 to 68.3 µM) | 0.063 to 31 |
| CO[C@H]1/C=C/O[C@@]2(C)Oc3c(C)c(O)c4c(c3C2=O)C(=O)C(N2CCOCC2)=C(NC(=O)/C(C)=C\C=C\[C@H](C)[C@H](O)[C@@H](C)[C@@H](O)[C@@H](C)[C@H](OC(=O)NCc2cccc(Cl)c2)[C@@H]1C)C4=O [Example 39, 25-O-Desacetyl-(carbonyl-3-chloro-benzylamine) 3-morpholino rifamycin S] | 0.002 to 1.95 (≈ 0.00221 to 2.15 µM) | 0.25 to 62 (≈ 0.276 to 68.4 µM) | 0.063 to 31 |
| CO[C@H]1/C=C/O[C@@]2(C)Oc3c(C)c(O)c4c(c3C2=O)C(=O)C(N2CCOCC2)=C(NC(=O)/C(C)=C\C=C\[C@H](C)[C@H](O)[C@@H](C)[C@@H](O)[C@@H](C)[C@H](OC(=O)NCCN(C)C)[C@@H]1C)C4=O [Example 30, 25-O-Desacetyl-(carbonyl-N,N-dimethylethylenediamine) 3-morpholino rifamycin S] | 0.002 to 1.95 (≈ 0.00234 to 2.29 µM) | 0.25 to 62 (≈ 0.293 to 72.7 µM) | 0.063 to 31 |
| CO[C@H]1/C=C/O[C@@]2(C)Oc3c(C)c(O)c4c(c3C2=O)C(=O)C(N2CCOCC2)=C(NC(=O)/C(C)=C\C=C\[C@H](C)[C@H](O)[C@@H](C)[C@@H](O)[C@@H](C)[C@H](OC(=O)NC2CCN(Cc3ccccc3)CC2)[C@@H]1C)C4=O [Example 33, 25-O-Desacetyl-(carbonyl-1-benzyl-piperidin-4-ylamine) 3-morpholino rifamycin S] | 0.002 to 1.95 (≈ 0.00209 to 2.04 µM) | 0.25 to 62 (≈ 0.262 to 64.9 µM) | 0.063 to 31 |
| COc1c(N2CCCC(NC3CCN(C(=O)O[C@H]4[C@H](C)[C@H](O)[C@H](C)[C@@H](O)[C@@H](C)/C=C/C=C(/C)C(=O)NC5=C(N6CCOCC6)C(=O)c6c(c(O)c(C)c7c6C(=O)[C@@](C)(O/C=C/[C@H](OC)[C@H]4C)O7)C5=O)CC3)C2)c(F)cc2c(=O)c(C(=O)O)cn(C3CC3)c12 (stereo partly drawn) [Example 59] | 0.002 to 1.95 (≈ 0.00163 to 1.59 µM) | 0.25 to 62 (≈ 0.204 to 50.7 µM) | 0.063 to 31 |
| CO[C@H]1/C=C/O[C@@]2(C)Oc3c(C)c(O)c4c(c3C2=O)C(=O)C(N2CCOCC2)=C(NC(=O)/C(C)=C\C=C\[C@H](C)[C@H](O)[C@@H](C)[C@@H](O)[C@@H](C)[C@H](OC(=O)NCCc2ccccn2)[C@@H]1C)C4=O [Example 18, 25-O-Desacetyl-(1-carbonyl-(2-pyridin-2-yl-ethylamine)) 3-morpholino rifamycin S] | 0.002 to 1.95 (≈ 0.00225 to 2.2 µM) | 0.25 to 62 (≈ 0.282 to 69.9 µM) | 0.063 to 31 |
| COc1ccccc1-c1cc(CNC(=O)O[C@H]2[C@H](C)[C@H](O)[C@H](C)[C@@H](O)[C@@H](C)/C=C/C=C(/C)C(=O)NC3=C(N4CCOCC4)C(=O)c4c(c(O)c(C)c5c4C(=O)[C@@](C)(O/C=C/[C@H](OC)[C@H]2C)O5)C3=O)on1 [Example 46, 25-O-Desacetyl-(carbonyl-C-[3-(2-methoxy-phenyl)-isoxazol-5-yl]-methylamino) 3-morpholino rifamycin S] | 0.002 to 1.95 (≈ 0.00206 to 2.01 µM) | 0.25 to 62 (≈ 0.258 to 64 µM) | 0.063 to 31 |
| C#CCNC(=O)O[C@H]1[C@H](C)[C@H](O)[C@H](C)[C@@H](O)[C@@H](C)/C=C/C=C(/C)C(=O)NC2=C(N3CCOCC3)C(=O)c3c(c(O)c(C)c4c3C(=O)[C@@](C)(O/C=C/[C@H](OC)[C@H]1C)O4)C2=O [Example 43, 25-O-Desacetyl-(carbonyl-prop-2-ynylamino) 3-morpholino rifamycin S] | 0.002 to 1.95 (≈ 0.00244 to 2.38 µM) | 0.25 to 62 (≈ 0.305 to 75.6 µM) | 0.063 to 31 |
| CO[C@H]1/C=C/O[C@@]2(C)Oc3c(C)c(O)c4c(c3C2=O)C(=O)C(N2CCOCC2)=C(NC(=O)/C(C)=C\C=C\[C@H](C)[C@H](O)[C@@H](C)[C@@H](O)[C@@H](C)[C@H](OC(=O)N(CCN(C)C)Cc2ccccc2)[C@@H]1C)C4=O [Example 37, 25-O-Desacetyl-(carbonyl-N′-benzyl-N,N-dimethyl-ethane-1,2-diamino) 3-morpholino rifamycin S] | 0.002 to 1.95 (≈ 0.00212 to 2.07 µM) | 0.25 to 62 (≈ 0.265 to 65.7 µM) | 0.063 to 31 |

Second part, the compound after the results:

| MIC [1] [µg/mL] | MIC [2] [µg/mL] | MIC [3] [µg/mL] | SMILES |
| --- | --- | --- | --- |
| 0.002 to 1.95 (≈ 0.00218 to 2.13 µM) | 0.25 to 62 (≈ 0.273 to 67.6 µM) | 0.063 to 31 | CO[C@H]1/C=C/O[C@@]2(C)Oc3c(C)c(O)c4c(c3C2=O)C(=O)C(N2CCOCC2)=C(NC(=O)/C(C)=C\C=C\[C@H](C)[C@H](O)[C@@H](C)[C@@H](O)[C@@H](C)[C@H](OC(=O)NCc2ccc([N+](=O)[O-])cc2)[C@@H]1C)C4=O [Example 40, 25-O-Desacetyl-(carbonyl-4-nitro-benzylamine) 3-morpholino rifamycin S] |
| 0.002 to 1.95 (≈ 0.00239 to 2.33 µM) | 0.25 to 62 (≈ 0.298 to 74 µM) | 0.063 to 31 | CO[C@H]1/C=C/O[C@@]2(C)Oc3c(C)c(O)c4c(c3C2=O)C(=O)C(N2CCOCC2)=C(NC(=O)/C(C)=C\C=C\[C@H](C)[C@H](O)[C@@H](C)[C@@H](O)[C@@H](C)[C@H](OC(=O)NCC(C)C)[C@@H]1C)C4=O [Example 7, 25-O-Desacetyl-(1-carbonyl-isobutylamino) 3-morpholino rifamycin S] |
| 0.002 to 1.95 (≈ 0.00212 to 2.06 µM) | 0.25 to 62 (≈ 0.265 to 65.6 µM) | 0.063 to 31 | CO[C@H]1/C=C/O[C@@]2(C)Oc3c(C)c(O)c4c(c3C2=O)C(=O)C(N2CCOCC2)=C(NC(=O)/C(C)=C\C=C\[C@H](C)[C@H](O)[C@@H](C)[C@@H](O)[C@@H](C)[C@H](OC(=O)N2CCN(c3ccc(F)cc3)CC2)[C@@H]1C)C4=O [Example 12, 25-O-Desacetyl-(1-carbonyl-1-(4-fluorophenyl)-piperazine) 3-morpholino rifamycin S] |
| 0.002 to 1.95 | 0.25 to 62 | 0.063 to 31 | CO[C@H]1/C=C/O[C@@]2(C)Oc3c(C)c(O)c4c(c3C2=O)C(=O)C(N2CCOCC2)=C(NC(=O)/C(C)=C\C=C\[C@H](C)[C@@H]2OC(C)(C)O[C@@H]([C@@H](C)[C@H](OC(=O)n3cc[n+](Cc5ccccc5)c3)[C@@H]1C)[C@@H]2C)C4=O [Example 5, 1-Benzyl-3-(25-O-desacetyl-(carbonyl-cyclic-21,23-(1-methylethylideneacetal) 3-morpholinorifamycin S))-3H-imidazol-1-ium] |
| 0.002 to 1.95 (≈ 0.0023 to 2.25 µM) | 0.25 to 62 (≈ 0.288 to 71.4 µM) | 0.063 to 31 | CO[C@H]1/C=C/O[C@@]2(C)Oc3c(C)c(O)c4c(c3/C2=N/O)C(=O)C(N2CCOCC2)=C(NC(=O)/C(C)=C\C=C\[C@H](C)[C@H](O)[C@@H](C)[C@@H](O)[C@@H](C)[C@H](OC(=O)NCCN(C)C)[C@@H]1C)C4=O [Example 69] |
| 0.002 to 1.95 (≈ 0.00224 to 2.18 µM) | 0.25 to 62 (≈ 0.28 to 69.4 µM) | 0.063 to 31 | CO[C@H]1/C=C/O[C@@]2(C)Oc3c(C)c(O)c4c(c3C2=O)C(=O)C(N2CCOCC2)=C(NC(=O)/C(C)=C\C=C\[C@H](C)[C@H](O)[C@@H](C)[C@@H](O)[C@@H](C)[C@H](OC(=O)NCCC2CCCN2C)[C@@H]1C)C4=O (stereo partly drawn) [Example 31, 25-O-Desacetyl-(carbonyl-2-(1-methyl-pyrrolidin-2-yl)-ethylamine) 3-morpholino rifamycin S] |
| 0.002 to 1.95 (≈ 0.00182 to 1.78 µM) | 0.25 to 62 (≈ 0.228 to 56.6 µM) | 0.063 to 31 | CO[C@H]1/C=C/O[C@@]2(C)Oc3c(C)c(O)c4c(c3C2=O)C(=O)C(N2CCOCC2)=C(NC(=O)/C(C)=C\C=C\[C@H](C)[C@H](O)[C@@H](C)[C@@H](O)[C@@H](C)[C@H](OC(=O)N2CCN(c3cc5c(cc3F)c(=O)c(C(=O)O)cn5C3CC3)CC2)[C@@H]1C)C4=O [Example 16, 25-O-Desacetyl-(4-carbonyl-1-cyclopropyl-6-fluoro-4-oxo-7-piperazin-1-yl-1,4-dihydro-quinoline-3-carboxylic acid) 3-morpholino rifamycin S] |
